Results as given in US20030044413A1, “Methods of limiting apoptosis of cells” (Regents of the University of Minnesota, priority 1998, published 2003).

Key:
HuH-7 cells [1] = assay: DCA-induced apoptosis, Hoechst staining, HuH-7 cells; type: cell-based; conditions: for percent of apoptotic cells: 6 h
Description: Cell culture and preparation of rat primary hepatocytes. Rat primary hepatocytes were isolated from male Sprague-Dawley rats (200-250 g) by collagenase perfusion as described previously (Mariash et al., J. Biol. Chem, 261, 9583-9586 (1986)). Briefly, rats were aneshtesized with phenobarbitol and the livers were perfused with 0.05% collagenase. Hepatocyte suspensions were obained by passing digested livers through 0.125 mm gauze and washing cells in modified Eagles' medium (MEM, Life Technologies, Inc., Grand Island, N.Y.). […] After isolation, hepatocytes were resuspended in William's E medium (Life Technologies, Inc., Grand Island, N.Y.) supplemented with 26 mM sodium bicarbonate, 23 mM HEPES, 0.01 U/ml insulin, 2 mM L-glutamine, 10 nM dexamethasone, 5.5 mM glucose, 100 U/ml penicillin and 100 U/ml streptomycin and then 1.0×10^6 cells were plated on 35×10 mm […] tissue culture dishes (Becton Dickinson Labware, Lincoln Park, N.J.). The cells were maintained at 37° C. in a humidified atmosphere of 5% CO2 for 3 h. Plates were then washed with medium to remove dead cells, and medium containing 10% heat-inactivated FBS (55° C. for 30 min) was added (Atlanta Biologicals, Inc., Norcross, Ga.). Aliquots of 1.0×10^5 human (HuH-7) hepatoma cells were plated on 35×10 mm tissue culture dishes (Becton Dickinson Labware) and maintained at 37° C. in Dulbecco's MEM (Atlanta Biologicals, Inc.) supplemented with 10% FBS, 100 U/ml penicillin and 100 u/ml streptomycin for 3 h prior to incubation with bile acids.
Incubation of cells with bile acids. Freshly isolated rat hepatocytes were cultured for 3 h as described above and then incubated with William's E medium supplemented with either 50 μM DCA, 50 μM UDCA (Sigma Chemical Co., St. Louis, Mo.), their combination, or no bile acid (control), for 2 h, 4 h, and 6 h. HuH-7 cells cultured for 3 h as described above were incubated with Dulbecco's MEM medium supplemented with either 50 μM, 100 μM, 500 μM, or 1000 μM DCA, UDCA, DCA+UDCA, or no addition (control) for 6 h and 24 h. The medium was gently removed at the indicated time points and scored for nonviable cells by trypan blue dye exclusion. The attached cells were fixed for morphologic assessment of apoptotic changes.
(§1) Morphological evaluation of apoptosis. Morphology was performed as described previously (Oberhammer et al., Proc. Natl. Acad. Sci. USA 89, 5408-5412 (1992)). Briefly, after fixation (with 4% formaldehyde in PBS, pH 7.4, for 10 min at room temperature), the cells were incubated with Hoechst dye 33258 (Sigma Chemical Co.) at 5 μg/ml in PBS for 5 min, washed with PBS and mounted with PBS:glycerol (3:1, v/v). Fluorescence was visualized with a Zeiss standard fluorescence microscope (Carl Zeiss, Inc., Thornwood, N.Y.). Photographs were taken with Kodak Ektar-1000 film (Eastman Kodak Co.). Stained nuclei were scored by blind analysis and categorized according to the condensation and staining characteristics of chromatin. Normal nuclei were identified as noncondensed chromatin dispersed over the entire nucleus. Apoptotic nuclei were identified by condensed chromatin, contiguous to the nuclear membrane, as well as nuclear fragmentation of condensed chromatin. Three fields per dish of approximately 500 nuclei were counted; mean values are expressed as the percent of apoptotic nuclei.

Saos-2 cells = assay: Okadaic acid-induced apoptosis, Saos-2 cells; type: cell-based, human
Experimental: Incubation of cells with ethanol, TGF-β1, anti-Fas antibody or okadaic acid. Freshly isolated rat hepatocytes were cultured for 3 h as described above and then incubated with William's E medium supplemented with either 0.5% ethanol, 50 μM UDCA, ethanol plus UDCA, or no addition (control) for 2 h and 4 h. HuH-7 cells were incubated with Dulbecco's medium supplemented with either 1 nM TGF-β1 (R & D Systems, Minneapolis, Minn.), 100 μM UDCA, TGF-β1+UDCA, or no addition (control) for 24 h, 48 h, and 72 h. Hep G2 cells were incubated with Dulbecco's medium supplemented with either 0.5 μg/ml of anti-Fas antibody CH-11 (Upstate Biotechnology, Inc., Lake Placid, N.Y.), 100 μM UDCA, CH-11+UDCA, or no addition for 48 h. Both HuH-7 cells and human osteogenic sarcoma Saos-2 cells were cultured in Dulbecco's medium supplemented with either 50 nM okadaic acid (Boehringer Mannheim Biochemicals, Inc, Indianapolis, Ind.), 100 μM UDCA, okadaic acid+UDCA, or no addition for 48 h. In all the combination groups, cells were pretreated with UDCA alone for 60 min prior to addition of ethanol, TGF-β1, anti-Fas antibody or okadaic acid.
as §1, with “Apoptotic nuclei were identified by condensed chromatin, contiguous to the nuclear membrane, as well as nuclear fragmentation of condensed chromatin.” left out

HuH-7 cells [2] = assay: FACS analysis of ΔΨm and ROS, HuH-7 cells; type: cell-based, human
Experimental: A ΔΨm and ROS measurement. ΔΨm and ROS production were measured by FACScan (Becton Dickinson) analysis. Freshly isolated rat hepatocytes were cultured for 3 h as described above and then incubated with William's E medium supplemented with either 100 μM DCA, 100 μM UDCA, equal molar amounts of both, or no bile acid (control), for 6 h. Rat hepatocytes were also cultured with either 1% ethanol, 100 μM UDCA, ethanol+UDCA, or no addition (control) for 4 h. HuH-7 cells, Hep G2 cells, and human osteogenic sarcoma Saos-2 cells were incubated with TGF-β1, anti-Fas antibody or okadaic acid, respectively, for 48 h under the same conditions as outlined above. For combination studies, cells were pretreated with UDCA or hyodeoxycholic acid for 60 min prior to addition of DCA, ethanol, TGF-β1, anti-Fas antibody or okadaic acid. Aliquots of 1.0×10^6 cells were incubated for 15 min at 37° C. with 50 nM 3,3′-dihexyloxacarbocyanine iodide [DiOC6(3)], 2 μM dihydroethidium (HE), or 5 μM 2′,7′-dichlorofluorescin diacetate (H2DCFDA; Molecular Probes, Inc. Eugene, Oreg.) and analyzed by cytofluorometry (Cathcart et al., Anal. Biochem., 134, 111-116 (1983); Zamzami et al., J. Exp. Med., 181, 1661-1672 (1 995); Carter et al., J. Leukocyte Biol., 55, 253-258 (1994)).
Rat primary hepatocytes were incubated with 100 μM DCA and 1% ETOH for 6 h and 4 h, respectively; HuH-7 cells with 1 nM TGF-β1 for 48 h; Hep G2 cells with 0.5 μg/ml anti-Fas antibody (CH-11) for 48 h, and Saos-2 cells with 50 nM okadaic acid (OA) for 48 h. In each combination group, cells were pretreated with 100 μM UDCA alone for 60 min prior to addition of the inducer. Aliquots of 1.0×10^6 cells were incubated for 15 min at 37° C. with 5 μM 2′,7′-dichlorofluorescin diacetate (H2DCFDA) and analyzed by cytofluorometry.

[3] = inducer TGF-β1, HuH-7, inhibition by UDCA

C[C@H](CCC(=O)O)[C@H]1CC[C@H]2[C@@H]3CC[C@@H]4C[C@H](O)CC[C@]4(C)[C@H]3C[C@H](O)[C@]12C [DCA, deoxycholic acid]
percent of apoptotic cells (HuH-7 cells [1]; 100 μM DCA): 16.8%
apoptotic cells (HuH-7 cells [1]; 100 μM DCA, 24 h): 20±2.8%
percent of apoptotic cells (HuH-7 cells [1]; 1000 μM DCA): 66.7%
necrosis (HuH-7 cells [1]; elevated bile acid concentrations (up to 1000 μM DCA)): no apparent necrosis

C[C@H](CCC(=O)O)[C@H]1CC[C@H]2[C@@H]3[C@@H](O)C[C@@H]4C[C@H](O)CC[C@]4(C)[C@H]3CC[C@]12C [UDCA, ursodeoxycholic acid]
apoptotic cells (HuH-7 cells [1]; 100 μM DCA + UDCA combination, 24 h): 11.5±2.1%
increase in cell viability by coincubation with UDCA (HuH-7 cells [1]; DCA + UDCA, 24 h): 44±7.1%
reduction of the apoptotic response (Saos-2 cells; 50 nM okadaic acid + 100 μM UDCA, 48 h): > 80%
Inhibition % Apoptosis (Saos-2 cells; inducer OA, Saos-2, inhibition by UDCA): 81.8 ± 2.3%
Peroxides Production (%) Inducer + UDCA (HuH-7 cells [2]; 1 nM TGF-β1 48 h, 100 μM UDCA pretreatment 60 min): 5.8 ± 2.9 %
inhibition at 100 µM (HuH-7 cells [2]; Homo sapiens, inducer TGF-β1, HuH-7, 100 μM UDCA, read-out: % Inhibition of peroxides production): 47.3 ± 16%
Inhibition % Superoxide Anion (HuH-7 cells [2]; [3]): 69.9 ± 15.6%
Inhibition % _Ψm (HuH-7 cells [2]; [3]): 45.0 ± 21.7%

C=C1[C@@H](O)[C@@H]2O[C@]3(CC[C@H](/C=C/[C@@H](C)[C@@H]4CC(C)=C[C@@]5(O[C@H](C[C@@](C)(O)C(=O)O)CC[C@H]5O)O4)O3)CC[C@H]2O[C@@H]1[C@@H](O)C[C@H](C)[C@H]1O[C@@]2(CCCCO2)CC[C@H]1C [okadaic acid]
apoptosis induced (Saos-2 cells; 50 nM okadaic acid, 48 h): > 30%

TGF-β1: transforming growth factor β1, nonmembrane damaging inducer of apoptosis
Peroxides Production (%) Inducer (HuH-7 cells [2]; 1 nM TGF-β1, 48 h, HuH-7): 11.0 ± 2.9%
